From US7018993B2, “Antiandrogenic agent” (Chugai Seiyaku Kabushiki Kaisha, priority 2000, dated 2006)
One block for each compound: values may come before it.

What was measured:
human androgen receptor [1] = target: T1, human androgen receptor (Homo sapiens, UniProt P10275); assay: Androgen receptor reporter gene assay for agonistic effects (MMTV-Luc, HeLa cells); type: cell-based; details: 10 μmol/L
T1 construct: expressed in transfected cells; host or cells: HeLa cells
T1 sequence (P10275 1-920): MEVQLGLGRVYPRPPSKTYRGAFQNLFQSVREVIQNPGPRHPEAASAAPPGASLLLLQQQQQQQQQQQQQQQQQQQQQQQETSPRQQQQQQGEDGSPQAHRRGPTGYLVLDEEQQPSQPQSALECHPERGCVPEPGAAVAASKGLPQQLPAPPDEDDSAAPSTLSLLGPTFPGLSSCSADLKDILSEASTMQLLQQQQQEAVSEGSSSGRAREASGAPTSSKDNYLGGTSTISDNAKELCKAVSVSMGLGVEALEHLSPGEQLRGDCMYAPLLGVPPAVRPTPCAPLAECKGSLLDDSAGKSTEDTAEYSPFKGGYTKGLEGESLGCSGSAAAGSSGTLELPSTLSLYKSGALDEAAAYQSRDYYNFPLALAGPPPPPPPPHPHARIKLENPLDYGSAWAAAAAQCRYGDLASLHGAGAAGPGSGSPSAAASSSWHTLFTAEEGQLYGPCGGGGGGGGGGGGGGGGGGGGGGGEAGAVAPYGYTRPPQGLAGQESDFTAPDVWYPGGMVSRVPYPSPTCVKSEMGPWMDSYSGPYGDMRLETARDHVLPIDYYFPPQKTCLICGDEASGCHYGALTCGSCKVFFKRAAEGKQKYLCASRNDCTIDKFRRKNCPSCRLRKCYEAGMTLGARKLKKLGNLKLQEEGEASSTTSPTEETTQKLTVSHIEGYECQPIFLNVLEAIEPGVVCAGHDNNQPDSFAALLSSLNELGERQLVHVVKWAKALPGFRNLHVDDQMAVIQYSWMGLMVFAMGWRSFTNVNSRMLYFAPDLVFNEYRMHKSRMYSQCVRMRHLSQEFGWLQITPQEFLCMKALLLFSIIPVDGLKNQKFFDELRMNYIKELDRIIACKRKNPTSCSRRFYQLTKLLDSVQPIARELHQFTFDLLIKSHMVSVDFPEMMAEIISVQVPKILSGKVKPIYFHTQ
Description: Twenty-four hours before transfection, 1.0×10^5 HeLa cells (purchased from Dainippon Pharmaceutical Co., Ltd.) are cultured in a 12-well microplate containing phenol red-free Dulbecco's Modified Eagle Medium (phenol red-free DMEM) supplemented with charcoal-treated FBS (DCC-FBS; 5%). […] To effect this assay, reference may be made to J. Biol. Chem., vol. 270, p.
(§1) Twenty-four hours before transfection, 1.0×10^5 HeLa cells are cultured in a 12-well microplate containing phenol red-free DMEM/5% DCC-FBS.

[2] = prostate cancer patients undergoing treatment with flutamide; cited from earlier work
androgen receptor = androgen receptor (Homo sapiens, UniProt P10275); details: 10 μmol/L; cited from earlier work
human androgen receptor [3] = target: T1, human androgen receptor; assay: Androgen receptor reporter gene assay for antagonistic effects (inhibition of DHT-induced transcriptional activity, HeLa cells); type: cell-based
Description: Twenty-four hours before transfection, 1.0×10^5 HeLa cells are cultured in a 12-well microplate containing phenol red-free DMEM/5% DCC-FBS. […] To effect this assay, reference may be made to J. Biol. Chem., vol. 270, p.
as §1

prostate weight = details: castrated rats, continuous administration for two weeks; cited from earlier work

- agonistic effects (human androgen receptor [1]): observed to have agonistic effects
- Luciferase activity (Relative activity) (human androgen receptor [3]; 1.0 μmol/L compound with 0.1 nmol/L DHT, 48 h, activity given by 0.1 nmol/L DHT set to 100): 29.0 (<50.0)
SMILES: CC(C)(O)C(=O)Nc1ccc([N+](=O)[O-])c(C(F)(F)F)c1 [Hydroxyflutamide, hydroxyflutamide]
- blood hydroxyflutamide levels [2]: several
- transcriptional activity of androgen receptor (androgen receptor): enhance the transcriptional activity

SMILES: CN(C)C(=O)CCCOc1cc(O)cc(CCC[C@@H]2C[C@H]3CC(=O)CC[C@]3(C)[C@H]3CC[C@]4(C)[C@@H](O)CC[C@H]4[C@H]23)c1 [Compound from Example 3, 17β-Hydroxy-7α-(3-(3-hydroxy-5-(3-(N,N-dimethylaminocarbonyl)propoxy)phenyl)propyl)-5α-androstan-3-one]
- IC50 (human androgen receptor [3]): 392 nM

SMILES: CC(=O)O[C@]1(C(C)=O)CC[C@H]2[C@@H]3C=C(Cl)C4=CC(=O)CC[C@]4(C)[C@H]3CC[C@@]21C [chlormadinone acetate]
- prostate weight (prostate weight): increase in their prostate weight

SMILES: CC(=O)O[C@]1(C(C)=O)CC[C@H]2[C@@H]3C=C(Cl)C4=CC(=O)[C@@H]5C[C@@H]5[C@]4(C)[C@H]3CC[C@@]21C [cyproterone acetate]
- prostate weight (prostate weight): increase in their prostate weight
